What was measured:
sperm [1] = experiment: Post thaw motility of sorted sperm on CASA (Example 4); format: cell-based, canine; conditions: for Progressive / Motile: average, 0 Hr post thaw
Procedure: Sperm was collected from a single canine at room temperature into CaniPro Chill 5, available from Minitube, WI, USA, then centrifuged into a pellet and resuspended in a Tris buffer at a pH of 6.8.
Samples were extended to 40×10^6 sperm/ml in 1 ml volumes with the Tris buffer described in Example 1 but set to a pH of 7.2. Ten samples were then stained 4, 4, 5, 5, 7, 8, 8, 9, 9, and 10 μL of Hoechst 33342 and quenched with one of two quenching dyes at a concentration of 50 μM in a second buffer Tris buffer.
Red food dye No. 40 quencher—1 ml Tris at a pH 6.3 was added with red food dye No. 40 into samples stained with 4, 5, 8, 9, 10 μL Hoechst 33342. The red food dye No. 40 was added at a concentration of about 50 μM.
Yellow food dye No. 6 quencher—1 ml Tris at a pH 6.3 was added with yellow food dye No. 6 into samples stained with 4, 5, 7, 8, 9 μL Hoechst 33342. The yellow food dye No. 6 was added at the same concentration as the red food dye No. 40 quencher, at about 50 μM.
5 million cells were sex sorted with a MoFlo SX XPD into 50 mL Falcon tubes having 3.5 mL of a Tris-egg yolk catch fluid, described in Example 1 for both X and Y populations. Two samples were sorted, the red food dye No. 40 quenched treatment with 9 μL Hoechst 33342 and the yellow food dye […] quenched treatment with 7 μL Hoechst 33342.
Straws were then frozen and stored in liquid nitrogen.
Straws were thawed for 30 sec in a 38° C. water bath and their motilities were examined on CASA.
Table 12 illustrates the average motilities and progressive motilities for the sorted treatments. Canine sperm quenched with yellow food dye No. 6 provided about 4.5% more motile sperm in the X population and 6.5% more motile sperm in the Y population. Similarly, the yellow quenched dye provided 7% better progressive motility in the X population and 8% better progressive motility in the Y population.

[2] = tested on: membrane compromised sperm; experiment: Dead gate intensity divided by live gate intensity, flow cytometer (Example 5); format: cell-based; conditions: for ability to create a dead gate population (ordering of the four dyes): from dead and live intensity data of Table 13
Procedure: (§1) A single Jersey bull was collected at an initial sperm concentration 1900×10^6 sperm/ml in a volume of 5 ml. The progressive motility of the sperm was 65% with normal morphologies greater than 65%.
(§2) The entire ejaculate of sperm was suspended in first staining buffer, specifically a 7.4 pH TALP described in TABLE 1, to a concentration of 160×10^6 sperm per mL (determined on nucleocounter) and divided into three aliquots of about 20 mL into 50 mL Falcon tubes and pre-warmed for 10 minutes at 34° C. The DNA selective fluorescent dye, Hoechst 33342, was added and samples were held at 34° C. for 60 minutes. 3 different Hoechst 33342 Stain Levels were used=12 μL, 14 μL and 16 μL per 2 mL (effective concentrations of 48 μM, 56 μM, 64 μM).
(§3) Preparation of the second buffer including the dead quenching dye—A 2 L bag of TALP, described in TABLE 1, was adjusted to pH 5.60 using HCl and then sterile filtered. […] For each of the four dyes tested (R40-red food dye No. 40, Y5—yellow food dye No. 5, Y6—yellow food dye No. 6 and PR—phenol red), an appropriate number of milligrams of each powder was placed in a Erlenmeyer Flask and then an exact amount of TALP pH 5.60 was added to create a 250 μM concentration of the dye. The result was a working TALP stock for each dye with a 100% (125 μM) relative amount of dye 50% relative (62.5 μM) and 20% relative (25 μM) solutions were made by dilution of 100% by TALP pH 5.60.
(§4) Single tubes of stained sperm at each of the three Hoechst 33342 concentrations were treated with TALP pH 5.60 which had no dead quenching dye present. Single tubes using Vitamin B12 (red colored chemical) with stock concentration of 15 μM (12% relative) were tested.
(§5) After this “bulk” staining for 60 minutes, 1 mL aliquots of stained sperm were combined with 1 mL aliquots of the second buffer including the dead quenching dyes. Samples sat for approximately 30 minutes at room temperature before being analyzed on a MoFlo SX (Beckman Coulter, USA) sperm sorting flow cytometer. Event rates were held as close to 13,000 as possible at the point of data acquisition.
(§6) The total number of individual treatments was 42 tubes, each containing 2 mL of stained sample. The alignment of the sorter was established using nuclei and confirmed with live sample from the 50% Red 40 series. Once good alignment was established, each tube was placed on the sorter long enough to establish a stabile dead gate population (about 30 seconds) and then a screenshot was taken and saved as a .jpeg image. This approach of rapidly documenting each sample is used to assure the most consistent alignment between all samples. Realignment of sorter will not cause differences in the intensities of live and dead gate populations but will cause differences in split quality.
(§7) FIG. 4 illustrates an example histogram. The ratio of dead gate intensity divided by live gate intensity is created by dividing the distance “A” by the distance “B” shown as a percentage. Lower values mean higher levels of quenching. The ratio of peak height divided by valley height is created by dividing the distance “C” by the distance “D”. A value of 1.00 means “no split” while higher values mean “better splits”.

sperm [3] = experiment: Split quality, height of peak divided by height of valley (Example 5); format: cell-based, Jersey bull
Procedure: as §1, §2, §3, §4, §5, §6, §7

[4] = tested on: membrane compromised sperm; experiment: Dead gate intensity, yellow 5 and phenol red at higher concentrations (Example 6); format: cell-based, Jersey bull; conditions: for Intensity: Hoechst 12 μL/2 mL
Procedure: (§8) A single Jersey bull was collected at an initial sperm concentration 1810×10^6 sperm/ml in a volume of 3.9 ml. The progressive motility of the sperm was 65% with normal morphologies greater than 50%.
(§9) Sperm were suspended at 320 million per mL in 30 mL a first buffer, (TALP described in table 1 at a pH 7.4) with 12 μL of Hoechst 33342 per 2 mL (48 μM) of stain and incubated for 1 hour at 34° C. Stained sperm was then placed as 1 mL aliquots in sample tubes and a 1 mL volume of the appropriate TALP was added. The same second buffer was used as example 1, namely a modified 5.60 pH TALP.
(§10) Each of the stained samples was sorted on a MoFlo SX (Beckman Coulter, USA) as described in Example 6. Screen shots were taken and the dead gate intensity and the split quality were measured in the same way described in Example 1 and recorded in TABLE 14.

sperm [5] = experiment: Split quality PV (Example 6); format: cell-based, Jersey bull; conditions: for PV: Hoechst 12 μL/2 mL, resulting pH 6.70
Procedure: as §8, §9, §10

[6] = dye 25 μM, Average over Hoechst levels
[7] = dye 62.5 μM, Average over Hoechst levels
[8] = dye 62.5 μM, Hoechst 12 μL/2 mL
[9] = dye 62.5 μM, Hoechst 14 μL/2 mL
[10] = dye 62.5 μM, Hoechst 16 μL/2 mL
[11] = dye 125 μM, Average over Hoechst levels

Structure (SMILES)	Progressive (sperm [1]; Y population)	Dead Intensity [2, 6]	Dead Intensity ([2]; dye 25 μM, Hoechst 12 μL/2 mL)	Dead Intensity ([2]; dye 25 μM, Hoechst 14 μL/2 mL)	Dead Intensity ([2]; dye 25 μM, Hoechst 16 μL/2 mL)	Dead Intensity [2, 7]	Dead Intensity [2, 8]	Dead Intensity [2, 9]	Dead Intensity [2, 10]	Dead Intensity [2, 11]	Dead Intensity ([2]; dye 125 μM, Hoechst 12 μL/2 mL)	Dead Intensity ([2]; dye 125 μM, Hoechst 14 μL/2 mL)	Dead Intensity ([2]; dye 125 μM, Hoechst 16 μL/2 mL)	ability to create a dead gate population (ordering of the four dyes) [2]	Height of Peak/Height of Valley (sperm [3]; dye 25 μM, Hoechst 16 μL/2 mL)	Height of Peak/Height of Valley (sperm [3]; [10])	Height of Peak/Height of Valley (sperm [3]; dye 125 μM, Hoechst 14 μL/2 mL)	Intensity ([4]; dye 62.5 μM, resulting pH 6.70)	PV (sperm [5]; dye 62.5 μM)	other results
COc1cc(S(=O)(=O)O)c(C)cc1N=Nc1c(O)ccc2cc(S(=O)(=O)O)ccc12 [Red 40, 6-hydroxy-5-[(2-methoxy-5-methyl-4-sulfophenyl)azo]-2-naphthalenesulfonic acid, reference compound]	13	68%	68%	72%	65%	52%	53%	53%	50%	38%	37%	41%	35%	about equal and better than the remaining dyes	1.00	1.00	2.00	53%	1.00	Height of Peak/Height of Valley (sperm [3]; dye 25 μM, Average for 12 μL and 14 μL stain series): 2.00
O=S1(=O)OC(c2ccc(O)cc2)(c2ccc(O)cc2)c2ccccc21 [Phenol Red, phenolsulfonphthalein]	–	94%	94%	97%	90%	87%	90%	90%	80%	79%	80%	80%	78%	–	1.00	1.00	–	–	–	Height of Peak/Height of Valley (sperm [3]; dye 125 μM, Hoechst 16 μL/2 mL): 1.00; amount of dye needed for a similar dead gate intensity ratio as red food dye No. 40 and yellow food dye No. 6 [4]: twelve; Intensity ([4]; dye 125 μM, resulting pH 6.70): 79%; Intensity ([4]; dye 250 μM, resulting pH 6.70): 70%; Intensity ([4]; dye 500 μM, resulting pH 6.70): 67%; Intensity ([4]; dye 750 μM, resulting pH 6.70): 55%; Intensity ([4]; dye 875 μM, resulting pH 6.70): 45%; Intensity ([4]; dye 1250 μM, second buffer pH 5.60, resulting pH 6.70): 41%; split improvement in understained sample (sperm [5]; 12 μL/2 mL Hoechst 33342, control samples had no split): created a split improvement; PV (sperm [5]; dye 125 μM): 1.00
O=S(=O)([O-])c1ccc(N=Nc2c(O)ccc3cc(S(=O)(=O)[O-])ccc23)cc1.[Na+].[Na+] [Yellow 6, Disodium 6-hydroxy-5[(4-sulfophenyl)azo]-2-naphthalenesulfononate]	21	71%	68%	74%	70%	51%	50%	52%	52%	39%	37%	40%	40%	about equal and better than the remaining dyes	–	1.00	1.80	50%	1.00	better progressive motility than red quenched (sperm [1]; X population): 7%; more motile sperm than red quenched (sperm [1]; X population): about 4.5%; Motile (sperm [1]; X population): 24; Progressive (sperm [1]; X population): 18.5; better progressive motility than red quenched (sperm [1]; Y population): 8%; more motile sperm than red quenched (sperm [1]; Y population): ~6.5%; Motile (sperm [1]; Y population): 25; Height of Peak/Height of Valley (sperm [3]; [8]): 1.70
